± gives the expanded uncertainty stated by the source.
Conditions: Fluid (supercritical or subcritical phases), Vibrating wire viscometry

N#N [nitrogen]
Conditions	viscosity [mPa·s]
348.15 K, 25007 kPa	0.02543 ± 0.00012
348.15 K, 26007 kPa	0.02571 ± 0.00012
348.15 K, 27005 kPa	0.02598 ± 0.00012
348.15 K, 27995 kPa	0.02628 ± 0.00012
348.15 K, 29000 kPa	0.02655 ± 0.00012
348.15 K, 30021 kPa	0.02687 ± 0.00012
348.15 K, 31015 kPa	0.02717 ± 0.00012
348.15 K, 32013 kPa	0.02747 ± 0.00013
348.15 K, 33000 kPa	0.02776 ± 0.00013
348.15 K, 34013 kPa	0.02808 ± 0.00013
348.15 K, 34919 kPa	0.02833 ± 0.00014
373.15 K, 100.3 kPa	0.02102 ± 0.0001
373.15 K, 200.1 kPa	0.02106 ± 9.1e-05
373.15 K, 301 kPa	0.02108 ± 9e-05
373.15 K, 400.2 kPa	0.02109 ± 8.7e-05
373.15 K, 600.7 kPa	0.0211 ± 8.7e-05
373.15 K, 800.6 kPa	0.02112 ± 8.8e-05
373.15 K, 1000.5 kPa	0.02114 ± 8.8e-05
373.15 K, 1501.2 kPa	0.0212 ± 8.8e-05
373.15 K, 2002.1 kPa	0.02125 ± 8.8e-05
373.15 K, 2501.4 kPa	0.02131 ± 8.9e-05
373.15 K, 3003.5 kPa	0.02137 ± 8.9e-05
373.15 K, 3503.3 kPa	0.02144 ± 9e-05
373.15 K, 4010 kPa	0.0215 ± 9e-05
373.15 K, 4501.6 kPa	0.02157 ± 9.1e-05
373.15 K, 5007.4 kPa	0.02164 ± 9.2e-05
373.15 K, 5504.7 kPa	0.02172 ± 9.3e-05
373.15 K, 6000.6 kPa	0.0218 ± 9.3e-05
373.15 K, 6507.4 kPa	0.02188 ± 9.3e-05
373.15 K, 7006.9 kPa	0.02194 ± 9.3e-05
373.15 K, 7500.7 kPa	0.02203 ± 9.5e-05
373.15 K, 8002.7 kPa	0.02211 ± 9.5e-05
373.15 K, 8504.3 kPa	0.0222 ± 9.5e-05
373.15 K, 9002.1 kPa	0.02228 ± 9.7e-05
373.15 K, 9499.1 kPa	0.02238 ± 9.7e-05
373.15 K, 10010 kPa	0.02247 ± 9.8e-05
373.15 K, 11006 kPa	0.02267 ± 9.9e-05
373.15 K, 12000 kPa	0.02284 ± 0.0001
373.15 K, 13002 kPa	0.02307 ± 0.0001
373.15 K, 14010 kPa	0.02327 ± 0.0001
373.15 K, 15013 kPa	0.02348 ± 0.0001
373.15 K, 16013 kPa	0.0237 ± 0.00011
373.15 K, 17018 kPa	0.02392 ± 0.00011
373.15 K, 18001 kPa	0.02414 ± 0.00011
373.15 K, 19005 kPa	0.0244 ± 0.00011
373.15 K, 19977 kPa	0.02462 ± 0.00011
373.15 K, 21015 kPa	0.02487 ± 0.00011
373.15 K, 22011 kPa	0.0251 ± 0.00011
373.15 K, 23004 kPa	0.02536 ± 0.00011
373.15 K, 24005 kPa	0.02559 ± 0.00011
373.15 K, 25012 kPa	0.02584 ± 0.00012
373.15 K, 26006 kPa	0.0261 ± 0.00012
373.15 K, 27007 kPa	0.02635 ± 0.00012
373.15 K, 28017 kPa	0.02662 ± 0.00012
373.15 K, 29005 kPa	0.02688 ± 0.00012
373.15 K, 30003 kPa	0.02714 ± 0.00012
373.15 K, 31001 kPa	0.02741 ± 0.00012
373.15 K, 32010 kPa	0.02765 ± 0.00012
373.15 K, 33011 kPa	0.02792 ± 0.00013
373.15 K, 34006 kPa	0.02821 ± 0.00013
373.15 K, 34834 kPa	0.02844 ± 0.00013
398.15 K, 100.1 kPa	0.02203 ± 0.0001
398.15 K, 200.9 kPa	0.02207 ± 9.4e-05
398.15 K, 300.8 kPa	0.02209 ± 9.5e-05
398.15 K, 400.5 kPa	0.0221 ± 9.3e-05
398.15 K, 600.3 kPa	0.02212 ± 9.1e-05
398.15 K, 800.5 kPa	0.02213 ± 9e-05
398.15 K, 1001 kPa	0.02215 ± 9.2e-05
398.15 K, 1501.8 kPa	0.0222 ± 9.1e-05
398.15 K, 2001.3 kPa	0.02225 ± 9.2e-05
398.15 K, 2495.8 kPa	0.02231 ± 9.2e-05
398.15 K, 3000.7 kPa	0.02236 ± 9.3e-05
398.15 K, 3501.8 kPa	0.02242 ± 9.3e-05
398.15 K, 4002.8 kPa	0.02247 ± 9.3e-05
398.15 K, 4503.1 kPa	0.02254 ± 9.4e-05
398.15 K, 5003.7 kPa	0.0226 ± 9.4e-05
398.15 K, 5502.6 kPa	0.02266 ± 9.5e-05
398.15 K, 6004.9 kPa	0.02273 ± 9.5e-05
398.15 K, 6501.8 kPa	0.0228 ± 9.5e-05
398.15 K, 7005.3 kPa	0.02287 ± 9.6e-05
